Target: T1, hM3 muscarinic receptor subtype (Homo sapiens, UniProt P20309)
T1 construct: expressed in transfected cells; crude membranes prepared in house
Experiment: Radioligand binding assay ([3H]-NMS displacement)
Conditions: [3H]-NMS 1 nM, CHO cell membranes, 60 minutes at 37° C.; read-out: Ki value for the M3 muscarinic receptor subtype
Procedure: A. Membrane Preparation from Cells Expressing hM1, hM2, hM3 and hM4 Muscarinic Receptor Subtypes
CHO cell lines stably expressing cloned human hM1, hM2, hM3 and hM4 muscarinic receptor subtypes, respectively, were grown to near confluency in medium consisting of HAM's F-12 supplemented with 10% FBS and 250 μg/mL Geneticin. The cells were grown in a 5% CO2, 37° C. incubator and lifted with 2 mM EDTA in dPBS. Cells were collected by 5 minute centrifugation at 650×g, and cell pellets were either stored frozen at −80° C. or membranes were prepared immediately. For membrane preparation, cell pellets were resuspended in lysis buffer and homogenized with a Polytron PT-2100 tissue disrupter (Kinematica AG; 20 seconds×2 bursts). […] The protein concentration of the membrane suspension was determined by the method described in Lowry, O. et al., […] 193:265 (1951). […]
Radioligand binding assays were performed in 96-well microtiter plates in a total assay volume of 100 μL. […] Filter plates were rinsed three times with wash buffer (10 mM HEPES) to remove unbound radioactivity. […] The plates were then counted in a PerkinElmer Topcount liquid scintillation counter (PerkinElmer Inc., Wellesley, Mass.). Binding data were analyzed by nonlinear regression analysis with the GraphPad Prism Software package (GraphPad Software, Inc., San Diego, Calif.) using the one-site competition model. […]

T1 sequence (P20309 whole entry): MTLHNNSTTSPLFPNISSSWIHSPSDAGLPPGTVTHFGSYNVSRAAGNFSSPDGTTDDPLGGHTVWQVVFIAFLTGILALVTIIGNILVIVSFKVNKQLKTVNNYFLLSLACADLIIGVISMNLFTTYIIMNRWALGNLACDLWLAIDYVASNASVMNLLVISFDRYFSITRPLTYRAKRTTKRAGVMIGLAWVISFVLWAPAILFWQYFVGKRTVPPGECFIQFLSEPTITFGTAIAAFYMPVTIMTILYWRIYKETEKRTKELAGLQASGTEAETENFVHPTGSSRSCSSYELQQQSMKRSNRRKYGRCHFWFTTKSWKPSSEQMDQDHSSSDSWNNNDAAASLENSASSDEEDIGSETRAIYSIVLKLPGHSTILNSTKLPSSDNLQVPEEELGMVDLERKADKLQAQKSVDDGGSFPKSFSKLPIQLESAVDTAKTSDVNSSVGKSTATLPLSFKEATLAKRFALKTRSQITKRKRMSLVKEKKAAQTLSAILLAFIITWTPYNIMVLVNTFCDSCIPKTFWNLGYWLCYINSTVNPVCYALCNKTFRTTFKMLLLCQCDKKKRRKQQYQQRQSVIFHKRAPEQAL

## NC(=O)C1CCN(Cc2ccc(NC(=O)CCN3CCC(OC(=O)Nc4ccccc4-c4ccccc4)CC3)cc2)CC1 [Example 1, Biphenyl-2-ylcarbamic Acid 1-{2-[4-(4-Carbamoylpiperidin-1-ylmethyl)phenylcarbamoyl]ethyl}piperidin-4-yl Ester]
  Ki: < 5 nM

— patent publication US8211915B2, “Biphenyl compounds useful as muscarinic receptor antagonists” (Theravance, Inc., priority 2004, dated 2012)
